Data on 18 molecules can be found in patent publication US6653318B1, “5-(E)-Bromovinyl uracil analogues and related pyrimidine nucleosides as anti-viral agents and methods of use” (Yale University, priority 1999, dated 2003).

One data set relates to VZV. Briefly: Virus growth inhibition assay, VZV viral DNA slot-blot. Type of data set: cell-based, Varicella-Zoster virus. The following applies: read-out: IC50 VZV. The method, then: Virus growth inhibition assay. Confluent virus permissive cells in 12-well plates are inoculated with the virus at 30˜40 pfu/well. After one-hour adsorption at 37° C., the inoculum is replaced with the medium containing 10% of dialyzed FBS and tested compounds at various dosages. Each dosage is duplicated. The infected cells are harvested at 72-hour postinfection. For HSV virus, the plaque reduction assay is performed to measure the virus growth. […] For VZV and EBV, the infected cells are lysed by “freeze-thaw” and the lysate is treated with protease K and RNase. […] The viral DNA is detected by hybridization with ^32P-labeled DNA fragment of viral specific gene. Autoradiographic results are quantitated by Personal Densitometer SI (Molecular Dynamics., Sunnyvale, Calif.). The same membrane is stripped and rehybridized with human β-actin gene fragment. The viral DNA amount is subsequently normalized by viral DNA/human actin DNA.

The next data set relates to HSV-1. Briefly: Virus growth inhibition assay, HSV plaque reduction. Type of data set: cell-based, Herpes Simplex virus. Here is the method: (§1) Virus growth inhibition assay. Confluent virus permissive cells in 12-well plates are inoculated with the virus at 30˜40 pfu/well. After one-hour adsorption at 37° C., the inoculum is replaced with the medium containing 10% of dialyzed FBS and tested compounds at various dosages. Each dosage is duplicated. The infected cells are harvested at 72-hour postinfection. For HSV virus, the plaque reduction assay is performed to measure the virus growth. ID50 is designated as the dosage that inhibits 50% of plaque formation compared with untreated controls. For VZV and EBV, the infected cells are lysed by “freeze-thaw” and the lysate is treated with protease K and RNase. The DNA is then subjected to slot-blot as described previous (Yao, et al., Biochem. Pharmacol. 51: 941-947). The viral DNA is detected by hybridization with ^32P-labeled DNA fragment of viral specific gene. Autoradiographic results are quantitated by Personal Densitometer SI (Molecular Dynamics., Sunnyvale, Calif.). The same membrane is stripped and rehybridized with human β-actin gene fragment. The viral DNA amount is subsequently normalized by viral DNA/human actin DNA. The concentration of the tested compounds, which inhibit 50% of viral DNA synthesis compared to untreated control, is defined as IC50.

A short description of data set [1]: Cell cytotoxicity assay, cell growth. The settings on record: human; CEM cells, three-day growth, 50% inhibition of cell growth. The data set is classed as cell-based. The method, then:
(§2) Cell Cytotoxicity Assay. CEM cells are grown at 2.5×10^4 Cells per ml in RPM1 media supplemented with 20% dialyzed FBS. When cells double, they are seeded in 24-well plates at 1 ml/well. The tested drugs are added at various diluted dosage. After three-day growth at 37° C., 5% CO2, the cells are harvested and counted by using Coulter counter. Cytotoxicity IC50 is designated as the dosage that inhibits 50% of the cell growth compared to the untreated controls.

For data set [2], the system named is FU catabolite amino acids. Briefly: FU metabolites by 19F-NMR in mice after pretreatment with BV analog. The data set is classed as in vivo. The following applies: BDF1 mice, 20 mg/kg p.o. two hours before FU 200 mg/kg i.p., one hour after FU. Here is the method: Two hours after injection, 5-Flurouracil (FU) at a concentration of 200 mg/kg was administered i.p. […] Consequently, the coadministration of any one or more of the β-L nucleoside compounds along with FU or an FU produrg in the treatment of cancer to enhance the effectiveness of these agents is meritorious and unexpected.

For data set [3] the following is noted: in humans; generally ranging from about 20-30 minutes; cited from earlier work.
Another data set relates to EBV. Briefly: Anti-EBV activity, EBV DNA slot blot in H1 cells. The settings on record: concentration that inhibits 50% of virus growth, 5 days. Type of data set: cell-based, Epstein Barr virus. The method, then:
as §1
A high yield of EBV producing cell line H1 derived from human P3HR1 cells was used in this study. Cells were cultured in RPMI medium supplemented with 10% dialyzed fetal bovine serum and 100 μg/ml Kanamycin and were grown at 37° C. in a humidified incubator containing 5% CO2.
H1 cells were maintained in logarithmic phase of growth for two days prior to the initiation of treatment. The H1 cells were seeded in 24 well plates at the density of 2×10^5 cells per well in 2 ml of fresh medium with or without drug treatment and were incubated at 37° C. for 5 days. Following the period of drug treatment the cells were pelleted and used to determine the inhibitory effect of drug on EBV DNA by slot blot assay.
A total of 4×10^5 H1 cells treated with the various nucleoside analogs (as set forth below) were lysed in 400 μl of 10 mM Tris-HCl (pH 7.5) solution by freezing and thawing 3 times. The cell lysate was treated with RNAase A (at a final concentration of 50 μg/ml) at 37° C. for 30 minutes and then with proteinase K (at a final concentration of 100 μg/ml) at 55° C. for 2 hr. The samples were denatured by adjusting the final concentration to 0.4N NaOH/10 mM EDTA at pH 8.2. After heating for 10 minutes in a water bath at 100° C., the samples were spotted onto positively charged nylon membrane using a manifold. […] The amount of EBV DNA in treated H1 cells was determined according to the ratio of EBV DNA to Alu DNA in comparison with non-treatment control H1 cells. […]

The test system of a further data set is CEM cells. Briefly: Cell cytotoxicity assay, cell growth. Type of data set: cell-based. The settings on record: three-day growth, 50% inhibition of cell growth. The method, then:
as §2

The mark [4] stands for this setting: Human alphaherpesvirus 3, concentration that inhibits 50% of virus growth, viral DNA, 72-hour postinfection.
Where [5] appears, read: Human alphaherpesvirus 1, concentration that inhibits 50% of virus growth.
The mark [6] stands for this setting: human gammaherpesvirus 4, 120 h.
Where [7] appears, read: concentration that inhibits 50% of virus growth, viral DNA, 72-hour postinfection.
Where [8] appears, read: concentration that inhibits 50% of virus growth.

Molecules are shown by their SMILES. Where two headings read alike, the source gives them in different places. Some results are limits rather than exact numbers.

Take `O=c1[nH]c(=O)n([C@H]2CO[C@H](CO)O2)cc1/C=C/I` [L-α-IVOddU, (2S,5R)-E-5-(2-Iodovinyl)-1-[2-(hydroxymethyl)-1,3-dioxolan-5-yl]uracil]: the melting point (commonly the temperature, or range, at which the solid turns liquid) is 60 °C (dec.). The IC50 – broadly, the concentration at which inhibition is half-maximal – in the data set with VZV (setting [4]) is over 30 µM. Further, the 50% inhibitory concentration (IC50) with HSV-1 (setting [5]) was over 50 µM. The same molecule came in with an IC50 at 3 days in data set [1] of over 100 µM.
`Nc1nc2c(ncn2COCCO)c(=O)[nH]1` [Acyclovir, reference compound] displayed an IC50 in the data set on HSV-1 (setting [5]) of 13.6 µM. Further, in data set [1], the IC50 at 3 days was over 100 µM.
As to `O=c1[nH]c(=O)n([C@@H]2CO[C@H](CO)O2)cc1/C=C/Br` [L-β-BVOddU, (2S,5S)-E-5-(2-Bromovinyl)-1-[2-(hydroxymethyl)-1,3-dioxolan-5-yl]uracil], the IC50 is 0.07 µM with VZV (setting [4]) and 36 µM in the data set with HSV-1 (setting [5]). The same molecule came in with an IC50 at 3 days in data set [1] of over 100 µM. Moreover, the “inhibition of FU catabolite amino acids” value in data set [2] was about 100%.
In the case of `O=c1[nH]cc(F)c(=O)[nH]1` [FU, 5-fluorouracil], the “half-life of FU” value in data set [3] is listed as “approximately 25 minutes”.
Consider `O=c1[nH]c(=O)n([C@@H]2CO[C@H](CO)O2)cc1/C=C/I` [L-β-IVOddU, (2S,5S)-E-5-(2-Iodovinyl)-1-[2-(hydroxymethyl)-1,3-dioxolan-5-yl]uracil], for which the melting point was 162 °C (dec.). For the same molecule, the IC50 in the data set with VZV (setting [4]) is 0.035 µM. The molecule further registered an IC50 in the data set with HSV-1 (setting [5]) of 33 µM. Besides, the IC50 with EBV (setting [6]) was determined as 4.1 µM. Also, the IC50 at 3 days in data set [1] was over 100 µM.
With `O=c1[nH]c(=O)n([C@H]2O[C@@H](CO)[C@H](O)[C@@H]2F)cc1/C=C/Br` [L-BV2′F-dU, E-5-(2-Bromovinyl)-1-(2-deoxy-2-fluoro-β-L-ribofuranosyl) uracil], the figures for the IC50 with VZV (setting [4]) and in the data set on HSV-1 (setting [5]) were over 30 µM and over 50 µM, respectively. In data set [1], this molecule yielded an IC50 at 3 days of over 100 µM.
Regarding `O=c1[nH]c(=O)n([C@@H]2O[C@H](CO)[C@@H](O)[C@@H]2O)cc1/C=C/Br` [D-ara-BVU, 1-β-D-arabinofuranosyl-(E)-5-(2-bromovinyl)uracil, reference compound], in the data set on VZV (setting [4]), the IC50 came to 0.0007 µM. In data set [1], this molecule displayed an IC50 at 3 days of over 100 µM. For the same molecule, in data set [2], the “effect on FU catabolite amino acids / break-down of FU (in words)” value is on record as “decreased from catabolite amino acids”.
`O=c1[nH]c(=O)n([C@H]2CO[C@H](CO)O2)cc1/C=C/Br` [L-α-BVOddU, (2S,5R)-E-5-(2-Bromovinyl)-1-[2-(hydroxymethyl)-1,3-dioxolan-5-yl]uracil]: the results for the IC50 in the data set on VZV (setting [4]) and with HSV-1 (setting [5]) were over 30 µM and over 50 µM, respectively. In data set [1], this molecule came in with an IC50 at 3 days of over 100 µM.
Turning to `O=c1[nH]c(=O)n([C@@H]2CO[C@H](CO)O2)cc1Br` [L-BrOddU, reference compound], the IC50 in the data set with VZV (setting [7]) was over 30 µM; in the data set with HSV-1 (setting [8]), over 100 µM; in the data set on EBV, 0.2 µM; in the data set with CEM cells, over 100 µM.
On to `O=c1[nH]c(=O)n([C@@H]2CO[C@@H](CO)O2)cc1/C=C/Br` [D-α-BVOddU, (2R,5S)-E-5-(2-Bromovinyl)-1-[2-(hydroxymethyl)-1,3-dioxolan-5-yl]uracil], for which the IC50 in the data set on VZV (setting [4]) is over 30 µM; in the data set on HSV-1 (setting [5]), over 50 µM. Besides, the IC50 at 3 days in data set [1] was over 100 µM.
As to `O=c1[nH]c(=O)n([C@@H]2CS[C@H](CO)O2)cc1/C=C/Br` [L-β-BVSddU, (2R,5S)-E-5-(2-Bromovinyl)-1-(2-hydroxymethyl-1,3-oxathiolan-5-yl)uracil], the values for the IC50 in the data set with VZV (setting [4]) and in the data set with EBV (setting [6]) were 12.5 µM and over 50 µM, respectively. In data set [1], this molecule had an IC50 at 3 days of over 100 µM.
Turning to `O=c1[nH]c(=O)n([C@H]2CO[C@H](CO)O2)cc1/C=C/Cl` [L-α-ClVOddU, (2S,5R)-E-5-(2-Chlorovinyl)-1-[2-(hydroxymethyl)-1,3-dioxolan-5-yl]uracil], the melting point was in the range of 101 to 102 °C. Besides, the IC50 in the data set with VZV (setting [4]) was over 30 µM. The IC50 in the data set with HSV-1 (setting [5]) was over 50 µM. Further, the concentration for half-maximal inhibition (IC50) at 3 days in data set [1] is over 100 µM.
Consider `O=c1[nH]c(=O)n([C@@H]2CO[C@H](CO)O2)cc1/C=C/Cl` [L-β-ClVOdd, (2S,5S)-E-5-(2-Chlorovinyl)-1-[2-(hydroxymethyl)-1,3-dioxolan-5-yl]uracil], for which the IC50 was determined as 0.15 µM in the data set on VZV (setting [4]) and 18 µM with HSV-1 (setting [5]). The molecule also registered an IC50 at 3 days in data set [1] of over 100 µM.
With `O=c1[nH]c(=O)n([C@@H]2CO[C@H](CO)O2)cc1I` [L-IOddU, reference compound], the IC50 with VZV (setting [7]) was 17 µM; in the data set with HSV-1 (setting [8]) it was 70 µM; in the data set with EBV, 0.1 µM; in the data set on CEM cells, over 100 µM.
For the molecule `O=c1[nH]c(=O)n([C@H]2C[C@H](O)[C@@H](CO)O2)cc1/C=C/Br` [D-BVDU, (E)-5-(2-bromovinyl)-2′-deoxyuridine, reference compound], in the data set with VZV (Human alphaherpesvirus 3, 72 h), the IC50 was determined as 0.05 µM. For the same molecule, the IC50 at 3 days in data set [1] is over 100 µM.
As for `O=c1[nH]c(=O)n([C@@H]2C[C@@H](O)[C@H](CO)O2)cc1/C=C/Br` [L-BVDU, E-5-(2-Bromovinyl)-2′-deoxy-L-uridine], the IC50 in the data set with VZV (setting [7]) and in the data set with CEM cells was over 100 µM in each case.
On to `O=c1[nH]c(=O)n([C@H]2CO[C@@H](CO)O2)cc1/C=C/Br` [D-β-BVOddU, (2R,5R)-E-5-(2-Bromovinyl)-1-[2-(hydroxymethyl)-1,3-dioxolan-5-yl]uracil], for which the values for the IC50 in the data set on VZV (setting [4]) and in the data set with HSV-1 (setting [5]) were 26 µM and over 50 µM, respectively. This molecule also showed an IC50 at 3 days in data set [1] of over 100 µM.
`Nc1nc(O)c2ncn(CCC(CO)CO)c2n1` [Pencyclovir, reference compound]: the 50% inhibitory concentration (IC50) with VZV (setting [7]) is 0.14 µM; in the data set on HSV-1 (setting [8]), 18 µM; in the data set on CEM cells it was over 100 µM.
